Usually viability stands for a per cent measure of how many cells are alive, often set against a control. A high value points to less harm to the cells. Broadly, the IC50 is the concentration needed to halve the response being measured.

This is an account of results in US20260297035A1, “PROTEIN KINASE INHIBITORS AND USES THEREOF” (DELiver Therapeutics, Inc., priority 2023, published 2026).

One data set relates to IMR90 fibroblasts, IL-6. Put plainly: Senomorphic activity: IL-6 reduction (ELISA) in senescent IMR90 fibroblasts. It counts as cell-based, human. As to conditions: for IL-6 reduction potency compared with pacritinib: compared with control drug pacritinib. The method, then:
Senomorphic activity of compounds were assessed by determining whether the compounds could inhibit the senescence-associated secretory phenotype (SASP) in senescent cells, which is associated with overproduction and secretion of pro-inflammatory factors. Although many of these factors are associated primarily with macrophages and monocytes, they can also be made by a variety of senescent and activated cell types, such as fibroblasts. Specifically, IMR90 fibroblasts are known to overproduce these factors, especially when rendered senescent.
(§1) In the assay, IMR90 fibroblasts were plated at a density of 3E6 cells in a T175 tissue culture (TC)-treated flask. The flasks were placed into a tissue culture incubator and cells were allowed to adhere to the bottom of the wells for 24 hours. After cell adherence, the TC-treated flasks containing the cells were placed into a MultiRad225 X-ray irradiator, where cells were exposed to 10 grays (Gy) of ionizing […] irradiation. After irradiation, flasks were returned to the tissue culture incubator for 7 days, refreshing the cell media every 3 days.
(§2) After the 7-day incubation period that allowed full senescence transformation, cells were detached from the TC-treated flasks using 0.25% trypsin-EDTA solution. Cells were then split, and two experiments were conducted simultaneously: (1) verification of senescence induction via β-galactosidase staining (a senescent cell marker) and (2) analysis of senomorphic activity of compounds.
For verification of senescence induction, 2.5E4 cells were plated in TC-treated 6-well plates. After overnight adherence to the TC-plates, cells were fixed and stained for β-galactosidase accumulation following the manufacturer's standard protocol (e.g., Millipore Sigma, Senescence Cells Histochemical Staining Kit, CS0030-1KT). Brightfield microscopy was used to image the cells and ImageJ software was used to calculate the percentage of senescent cells per well. Non-irradiated IM90 fibroblasts were used as a non-senescent control.
To test the senomorphic activity of compounds, 1E4 cells were plated in 96-well plates. After overnight adherence to the 96-well plates, compounds were added in half-log dilutions to the wells containing the cells. Compounds that were effective inhibitors of JAK2 and were not effective inhibitors of JAK1 were assayed (JAK2 selective inhibitors). Twenty-four hours after compounds were added, cell culture media was collected and analyzed by various enzyme linked immunosorbent assays (ELISAs) for the expression of SASP-associated cytokines, including IL-6, TGF-beta, and TNF-alpha. The manufacturer's protocol was followed for ELISA analysis (e.g., Abcam, Human IL-6 ELISA kit, ab178013). Cytokine levels were compared to untreated controls and reduction of cytokine production was plotted and calculated using GraphPad Prism analysis software.
On the technique in general: ELISA stands for enzyme-linked immunosorbent assay.

The nature of data set [1]: Relative viability (CellTiterGlo) of senescent IMR90 fibroblasts. Format: cell-based, human. As to conditions: human, senescent imr90 fibroblasts. The method, then: as §1, §2
(§3) Cells also were measured for relative viability to generate cytotoxicity curves associated with the varying concentrations of compounds. […] LD50 values were measured by normalizing luminescence intensity to the lowest drug concentration. GraphPad Prism was used to plot and calculate LD50 values from the cytotoxic kill curves. Curves were fit to a non-linear regression model, with compound concentration vs. response and variable slope (four parameters).
On the technique in general: In ATP-based viability assays light output follows the ATP content of the culture.

Another data set concerns IMR90 fibroblasts. The data set is described as above. Format: cell-based, human. As to conditions: at IL-6 reducing concentrations. The method, then:
as §1, §2, §3

The subject of the next data set is JAK2. As to conditions: cited from earlier work.
Another data set relates to ABL1 F317L. As to conditions: control inhibitor; Tyr 02; ATP 10 μM; cited from earlier work.
The next data set has as its system EPHA1. As to conditions: control inhibitor; Tyr02; ATP 25 uM; cited from earlier work.
The next data set concerns EPHA5. As to conditions: control inhibitor; Tyr 01; ATP 150 uM; cited from earlier work.
Another data set deals with EPHB2. As to conditions: control inhibitor; Tyr 02; ATP 75 uM; cited from earlier work.
Another data set concerns TXK. As to conditions: control inhibitor; Tyr 06; ATP 100 uM; cited from earlier work.
For a further data set, the system named is ROS1. As to conditions: control inhibitor; Tyr 01; ATP 50 uM; cited from earlier work.
The subject of a further data set is RET. As to conditions: control inhibitor; Tyr 02; ATP 10 uM; cited from earlier work.
The next data set concerns RET-V804E. As to conditions: control inhibitor; Tyr 04; ATP 50 uM; cited from earlier work.
A further data set has as its system PTK2B (FAK2). As to conditions: control inhibitor; Tyr 01; ATP 5 uM; cited from earlier work.
In the next data set the test system is RET-V804M. As to conditions: control inhibitor; Tracer 236 at 5 nM; cited from earlier work.
In a further data set the test system is RET-M918T. As to conditions: control inhibitor; Tracer 236 at 10 nM; cited from earlier work.
A further data set deals with TNK2 (ACK). As to conditions: control inhibitor; Tracer 236 at 30 nM; cited from earlier work.
The next data set has as its system TEC. As to conditions: control inhibitor; Tracer 178 at 1 nM; cited from earlier work.
The test system of another data set is DDR2-T654M. As to conditions: control inhibitor; Tracer 178 at 100 nM; cited from earlier work.
The target in another data set is ABL1(wt) (Homo sapiens, UniProt P00519). As to conditions: control inhibitor; Tyr 02; ATP 10 μM; cited from earlier work.
Chain of ABL1(wt) (P00519 with tags, fused parts or gaps): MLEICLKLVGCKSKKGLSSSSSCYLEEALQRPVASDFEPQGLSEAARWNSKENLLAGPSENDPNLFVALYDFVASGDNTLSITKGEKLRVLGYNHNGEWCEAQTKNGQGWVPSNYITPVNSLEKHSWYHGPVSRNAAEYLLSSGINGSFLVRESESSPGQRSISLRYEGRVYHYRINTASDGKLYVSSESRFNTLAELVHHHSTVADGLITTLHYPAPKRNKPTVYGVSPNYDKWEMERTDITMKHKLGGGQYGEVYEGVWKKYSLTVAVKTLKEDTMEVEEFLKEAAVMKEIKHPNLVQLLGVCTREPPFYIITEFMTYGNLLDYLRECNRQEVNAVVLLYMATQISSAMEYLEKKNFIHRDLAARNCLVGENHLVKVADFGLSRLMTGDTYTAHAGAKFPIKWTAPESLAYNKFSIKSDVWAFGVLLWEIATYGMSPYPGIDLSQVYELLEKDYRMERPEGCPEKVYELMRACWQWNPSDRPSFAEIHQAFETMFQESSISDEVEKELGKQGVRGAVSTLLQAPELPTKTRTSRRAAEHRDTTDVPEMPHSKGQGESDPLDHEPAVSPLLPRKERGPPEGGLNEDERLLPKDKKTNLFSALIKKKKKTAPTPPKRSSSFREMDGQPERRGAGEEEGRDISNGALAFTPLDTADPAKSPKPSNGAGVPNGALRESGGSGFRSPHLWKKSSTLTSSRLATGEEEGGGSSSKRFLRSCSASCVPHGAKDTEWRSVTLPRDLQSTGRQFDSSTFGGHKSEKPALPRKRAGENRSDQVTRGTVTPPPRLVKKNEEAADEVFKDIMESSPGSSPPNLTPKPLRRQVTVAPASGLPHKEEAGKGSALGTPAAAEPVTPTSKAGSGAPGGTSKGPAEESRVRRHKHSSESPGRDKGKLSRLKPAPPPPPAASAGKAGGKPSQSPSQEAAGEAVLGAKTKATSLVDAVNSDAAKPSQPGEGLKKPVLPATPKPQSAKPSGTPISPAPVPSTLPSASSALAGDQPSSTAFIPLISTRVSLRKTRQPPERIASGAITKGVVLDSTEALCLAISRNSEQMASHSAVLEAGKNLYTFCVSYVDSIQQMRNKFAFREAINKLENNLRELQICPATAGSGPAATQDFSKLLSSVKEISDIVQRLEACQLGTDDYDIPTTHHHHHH
Another data set has as its system BTK. As to conditions: control inhibitor; Tyr 01; ATP 25 uM; cited from earlier work.
The next data set has as its system ABL2 (Arg). As to conditions: control inhibitor; Tyr02; ATP 25 uM; cited from earlier work.
Another data set deals with SRC. As to conditions: control inhibitor; Tyr 02; ATP 50 uM; cited from earlier work.
The subject of another data set is SRC-N1. As to conditions: control inhibitor; Tyr 02; ATP 50 uM; cited from earlier work.
The test system of another data set is LCK. As to conditions: control inhibitor; Tyr 02; ATP 50 uM; cited from earlier work.

Structures can show the parent of a compound that is named as a salt.

Turning to `Cc1ccc(Nc2ncc3cccc(-c4ccc(F)cc4OC(C)C)c3n2)cc1N` [Cmpd51, N1-(8-(4-fluoro-2-isopropoxyphenyl)quinazolin-2-yl)-4-methylbenzene-1,3-diamine hydrochloride], in the data set on IMR90 fibroblasts, IL-6, the “IL-6 reduction (in words)” value is listed as “potent IL-6 reduction at sub-toxic drug levels” and the “IL-6 reduction potency compared with pacritinib” value is recorded as “more potent than the control drug pacritinib”. Besides, the inhibition at 0.0004 µM in the data set on IMR90 fibroblasts, IL-6 (Homo sapiens, IMR-90, 0.4 nM, 24 hours, read-out: IL-6 production reduction) is 67.5%. Also, the inhibition at 1.25 µM with IMR90 fibroblasts, IL-6 (Homo sapiens, IMR-90, 1250 nM, 24 hours, read-out: IL-6 production reduction) came to 71.6%. For the same compound, the viability in data set [1] (at 0.4 nM and 1250 nM) was 100%. The “cell toxicity (in words)” value in the data set on IMR90 fibroblasts is on record as “without cell toxicity”.

Turning to `C[C@@H]1CCN(C(=O)CC#N)C[C@@H]1N(C)c1ncnc2[nH]ccc12` [tofacitinib], the JAK2 selectivity entry in the data set with JAK2 was “not selective inhibitors of JAK2 PK”.

For the compound `C=CC(=O)Nc1cc(Nc2ncc3cccc(-c4ccc(F)cc4OC(C)C)c3n2)ccc1C` [Cmpd53, N-(5-((8-(4-fluoro-2-isopropoxyphenyl)quinazolin-2-yl)amino)-2-methylphenyl)acrylamide], in the data set on IMR90 fibroblasts, IL-6, the “IL-6 reduction (in words)” value is recorded as “potent IL-6 reduction at sub-toxic drug levels” and the “IL-6 reduction potency compared with pacritinib” value was “more potent than the control drug pacritinib”. Also, in the data set with IMR90 fibroblasts, IL-6 (Homo sapiens, IMR-90, 0.8 nM, 24 hours, read-out: IL-6 production reduction), the inhibition at 0.0008 µM worked out at 82.2%. The inhibition at 0.8 µM in the data set on IMR90 fibroblasts, IL-6 (Homo sapiens, IMR-90, 800 nM, 24 hours, read-out: IL-6 production reduction) turned out to be 82.9%. The viability in data set [1] (at 0.8 nM and 800 nM) was 100%. Besides, in the data set with IMR90 fibroblasts, the “cell toxicity (in words)” value is reported as “without cell toxicity”.

Take `CN[C@@H]1C[C@H]2O[C@@](C)([C@@H]1OC)n1c3ccccc3c3c4c(c5c6ccccc6n2c5c31)C(=O)NC4` [Staurosporine]: the IC50 in the data set with ABL1 F317L is 214 nM; with EPHA1, […]; in the data set on EPHA5, […]; with EPHB2 it was […]; with TXK, […]; in the data set with ROS1, […]. The IC50 with RET is […]; with RET-V804E it was 2.29 nM; in the data set on PTK2B (FAK2), 12 nM; with RET-V804M, 1.02 nM; in the data set with RET-M918T, 3.8 nM; in the data set on TNK2 (ACK), […].

Turning to `N#CC[C@H](C1CCCC1)n1cc(-c2ncnc3[nH]ccc23)cn1` [ruxolitinib], the JAK2 selectivity result in the data set on JAK2 is recorded as “not selective inhibitors of JAK2 PK”.

Take `Cc1nc(Nc2ncc(C(=O)Nc3c(C)cccc3Cl)s2)cc(N2CCN(CCO)CC2)n1` [dasatinib]: the values for the 50% inhibitory concentration (IC50) in the data set on TEC and with DDR2-T654M were […] and 139 nM, respectively.

Regarding `COc1cc2ncnc(Nc3cccc(Cl)c3)c2cc1OC` [Tyrphostin AG1478], the IC50 on ABL1(wt) was 326 nM; with BTK, 1800 nM; with ABL2 (Arg) it was 731 nM; in the data set with SRC it was 1650 nM; in the data set with SRC-N1 it was 1050 nM; in the data set on LCK, 631 nM.
